A short description of series [1]: AUClast in Balb/c nude mouse at 5 mg/kg, ip. Type of series: ADME, organism-based. Also on record: dose 5 mg/kg, time 0 - last, route intraperitoneal. The following applies: in vivo.
Series [2] in a line: Cmax in Balb/c nude mouse at 5 mg/kg, ip. The class given is ADME, organism-based. Also noted: dose 5 mg/kg, route intraperitoneal. To be noted: in vivo.
A short description of series [3]: Bioavailability in Balb/c nude mouse at 5 mg/kg, ip. Type of series: ADME, organism-based. The following applies: in vivo.
Series [4] has as its target T1, Protein deacetylase HDAC6 (Homo sapiens, UniProt Q9UBN7).
T1 sequence (Q9UBN7 whole entry): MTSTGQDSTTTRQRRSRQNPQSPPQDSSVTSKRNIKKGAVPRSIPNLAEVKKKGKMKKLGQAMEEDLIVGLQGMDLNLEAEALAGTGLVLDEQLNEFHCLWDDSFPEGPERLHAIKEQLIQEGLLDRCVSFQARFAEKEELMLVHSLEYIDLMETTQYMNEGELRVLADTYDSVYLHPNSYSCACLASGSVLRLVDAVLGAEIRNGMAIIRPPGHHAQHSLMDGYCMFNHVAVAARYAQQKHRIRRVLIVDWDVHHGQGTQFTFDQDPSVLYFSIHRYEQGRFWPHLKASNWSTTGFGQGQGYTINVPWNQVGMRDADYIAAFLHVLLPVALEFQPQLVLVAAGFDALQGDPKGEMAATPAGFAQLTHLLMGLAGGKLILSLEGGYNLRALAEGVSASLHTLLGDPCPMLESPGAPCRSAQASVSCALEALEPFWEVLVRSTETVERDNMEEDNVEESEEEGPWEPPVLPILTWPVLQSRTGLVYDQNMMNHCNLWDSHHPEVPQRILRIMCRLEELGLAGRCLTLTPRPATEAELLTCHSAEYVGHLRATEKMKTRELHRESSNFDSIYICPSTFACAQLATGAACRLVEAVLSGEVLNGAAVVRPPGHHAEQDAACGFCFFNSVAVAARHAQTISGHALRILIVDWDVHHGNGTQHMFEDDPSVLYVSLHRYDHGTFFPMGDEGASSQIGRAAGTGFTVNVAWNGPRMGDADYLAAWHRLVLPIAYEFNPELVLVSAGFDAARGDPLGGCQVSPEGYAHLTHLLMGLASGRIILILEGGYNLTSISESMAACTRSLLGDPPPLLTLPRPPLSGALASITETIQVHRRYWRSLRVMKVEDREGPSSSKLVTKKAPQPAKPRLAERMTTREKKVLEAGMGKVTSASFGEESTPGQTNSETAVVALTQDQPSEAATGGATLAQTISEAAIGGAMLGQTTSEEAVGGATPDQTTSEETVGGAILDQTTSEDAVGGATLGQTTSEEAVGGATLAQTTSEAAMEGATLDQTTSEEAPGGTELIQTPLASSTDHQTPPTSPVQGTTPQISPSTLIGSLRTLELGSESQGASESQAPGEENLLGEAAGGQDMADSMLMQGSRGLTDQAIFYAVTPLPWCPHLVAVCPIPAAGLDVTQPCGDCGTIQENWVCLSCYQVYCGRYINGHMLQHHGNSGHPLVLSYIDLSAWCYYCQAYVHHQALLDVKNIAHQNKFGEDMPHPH
Put plainly: Inhibition of full length recombinant human HDAC6 using fluorescent-labeled peptide as substrate by electrophoretic mobility shift assay.

Series [5] is described as follows: Intrinsic clearance in mouse liver microsomes. Type of series: ADME, microsome. To be noted: read-out: CLH. On the technique in general: Microsomes from liver hold many membrane-bound enzymes, among them those of drug oxidation.
Series [6] in a line: Half life in Balb/c nude mouse at 5 mg/kg, ip. Type of series: ADME, organism-based. To be noted: in vivo.
The next series concerns the target T2, Histone deacetylase 11 (Homo sapiens, UniProt Q96DB2).
T2 sequence (Q96DB2 whole entry): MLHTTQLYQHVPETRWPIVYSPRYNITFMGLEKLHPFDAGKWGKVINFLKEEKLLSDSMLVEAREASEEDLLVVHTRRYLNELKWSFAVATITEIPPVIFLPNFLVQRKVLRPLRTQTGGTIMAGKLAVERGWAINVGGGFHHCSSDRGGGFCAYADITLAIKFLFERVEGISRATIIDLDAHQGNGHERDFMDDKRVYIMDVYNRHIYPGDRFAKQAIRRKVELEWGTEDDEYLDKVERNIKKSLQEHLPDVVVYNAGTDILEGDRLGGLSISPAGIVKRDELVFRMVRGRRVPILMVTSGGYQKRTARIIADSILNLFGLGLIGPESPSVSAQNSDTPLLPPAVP
Put plainly: Inhibition of full length recombinant human HDAC11 expressed in baculoviral expression system using FAM-RHKK as substrate by electrophoretic mobility shift assay. On the technique in general: A gel shift assay detects complexes by their altered migration in electrophoresis.

Series [7] is described as follows: Half life in Balb/c nude mouse at 1 mg/kg, iv. The class given is ADME, organism-based. The following applies: in vivo.
Series [8] is described as follows: Clearance in Balb/c nude mouse at 1 mg/kg, iv. Type of series: ADME, organism-based. To be noted: in vivo.
A short description of series [9]: AUClast in Balb/c nude mouse at 1 mg/kg, iv. Type of series: ADME, organism-based. Also on record: dose 1 mg/kg, time 0 - last, route intravenous. To be noted: in vivo.
Series [10] in a line: Volume of distribution at steady state in Balb/c nude mouse at 1 mg/kg, iv. Type of series: ADME, organism-based. The following applies: in vivo, read-out: Vdss.
Series [11] in a line: Initial plasma concentration in Balb/c nude mouse at 1 mg/kg, iv. The class given is ADME, organism-based.

Bounds are passed on as bounds.

For orientation: AUC(0-t) means the area under the concentration-time curve up to a stated or last time point. Read a low AUC(0-t) as low exposure. A word on the Cmax: it is the maximum level reached in the sampled fluid or tissue. Broadly, the bioavailability is dose-corrected exposure relative to a reference, in per cent. A low value points to poor availability. As usually defined, the IC50 is the midpoint of a concentration-inhibition curve. As a reminder, the half-life is how long it takes for the measured level to halve. In turn, `O=C(NO)c1cccc2c1CN(c1nc3ccccc3[nH]1)C2` displayed an area under the curve AUC(0-t) in series [1] of 3.8 µM·h. Besides, in series [2], the Cmax was 4.2 µM. This compound returned a bioavailability in series [3] of 81%. Moreover, the IC50 in series [4] is greater than 10000 nM; on Histone deacetylase 11 it was 170 nM. Further, the microsomal CLint in [5] is 17 µL/min/mg. In addition, the half-life in [6] is 10.2 h.

One may read the clearance as the volume of plasma or blood freed of the substance per unit of time. `O=C(NO)c1ccc2c(c1)CN(c1nc3ccccc3[nH]1)CC2` had a half-life in [7] of 9.4 h. In series [8], the clearance amounted to 42 mL/min/kg. Moreover, the IC50 in [4] worked out at 4 nM; at Histone deacetylase 11, 2100 nM. This compound also returned an AUC(0-t) in [9] of 1 µM·h. Also, the Vd in series [10] came out at 18 L/kg. The compound further showed a C0 in series [11] of 3.5 µM.

The values are drawn from ChEMBL document CHEMBL4118189, “Discovery of novel N-hydroxy-2-arylisoindoline-4-carboxamides as potent and selective inhibitors of HDAC11” (Bioorg Med Chem Lett, 2018).
